Experimental data: patent US20100022483A1, “Substituted Tetracycline Compounds” (Paratek Pharmaceuticals, Inc., priority 2008, published 2010)
In brackets after ≈: the same amount, converted by molar mass. Like-named read-outs stand apart in the source and are kept apart here.

How the values were obtained:
[1] = system: gram positive bacteria; assay: In vitro anti-bacterial activity assay (broth dilution MIC), gram positive bacteria; format: cell-based, S. aureus; settings: 18 h
From the text: (§1) Bacterial infections may be caused by a wide variety of gram positive and gram negative bacteria. Some of the compounds of the invention are useful as antibiotics against organisms which are resistant and/or sensitive to other tetracycline compounds. The antibiotic activity of the tetracycline compounds of the invention may by using the in vitro standard broth dilution method described in Waitz, J. A., CLSI, Document M7-A2, vol. 10, no. 8, pp. 13-20, 2nd edition, Villanova, Pa. (1990).
(§2) The following assay was used to determine the efficacy of the tetracycline compounds against gram positive and gram negative bacteria. 2 mg of each compound was dissolved in 100 μl of DMSO. […] The tetracycline compound solutions were diluted to 50 μL volumes, with a test compound concentration of 0.098 μg/ml. Optical density (OD) determinations were made from fresh log-phase broth cultures of the test strains. Dilutions were made to achieve a final cell density of […] CFU/ml. At OD=1, cell densities for different genera were approximately:
(§3) 50 μl of the cell suspensions were added to each well of microtiter plates. The final cell density was approximately 5×10^5 CFU/ml. These plates were incubated at 35° C. in an ambient air incubator for approximately 18 hours. The plates were read with a microplate reader and were visually inspected when necessary. The MIC was defined as the lowest concentration of the tetracycline compound that inhibits growth. Table 3 includes MIC data for several substituted tetracycline compounds.

[2] = system: gram negative bacteria; assay: In vitro anti-bacterial activity assay (broth dilution MIC), gram negative bacteria; format: cell-based, E. coli
From the text: as §1, §2, §3

[3] = Mammalian cytotoxicity assay (resazurin), COS-1 cells; format: cell-based; settings: African green monkey, read-out: Cytotox. COS-1
Method: (§4) COS-1 and CHO-K1 cell suspensions were prepared, seeded into 96-well tissue culture treated black-walled microtiter plates (density determined by cell line), and incubated overnight at 37° C., in 5% CO2 and approximately 95% humidity. The following day, serial dilutions of compound were prepared under sterile conditions and transferred to cell plates. Cell/Compound plates were incubated under the above conditions for 24 hours. Following the incubation period, media/compound was aspirated and 50 μl of resazurin (0.042 mg/ml in PBS w/Ca and Mg) is added. The plates were then incubated under the above conditions for 2 hours and then placed in the dark at room temperature for an additional 30 minutes. Fluorescence measurements were taken (excitation 535 nm, emission 590 nm). The IC50 (concentration of compound causing 50% growth inhibition) was then calculated. Table 3 includes IC50 data for several substituted tetracycline compounds.

[4] = in vitro; format: cell-based; settings: Chinese hamster, Cytotox. CHO-K1
Method: as §4

[5] = system: 3T3 fibroblast cells; assay: In vitro phototoxicity assay (neutral red; UV light-treated vs dark control plates); format: cell-based; settings: for Photo Toxicity UV Tox50: UV light 50 minutes; for Photo Toxicity Dark Tox50: dark control plate
Method: 3T3 fibroblast cells were harvested and plated at a concentration of 1×10^5 cells/mL and the plates were incubated overnight at 37° C., in 5% CO2 and approximately 95% humidity. On the following day the medium was removed from the plates and replaced with Hanks' Balanced Salt Solution (HBSS). Compound dilutions were made in HBSS and added to the plates. For each compound tested, a duplicate plate was prepared that was not exposed to light as a control for compound toxicity. Plates were then incubated in a dark drawer (for controls), or under UV light (meter reading of 1.6-1.8 mW/cm^2) for 50 minutes. Cells were then washed with HBSS, fresh medium was added, and plates were incubated overnight as described above. The following day neutral red was added as an indicator of cell viability. The plates were then incubated for an additional 3 hours. Cells were then washed with HBSS and blotted on absorbent paper to remove excess liquid. A solution of 50% EtOH, 10% glacial acetic acid was added and after 20 minutes incubation the plate's absorbance at 535 nm was read using a Wallac Victor 5 spectrophotometer. The phototoxicity reflected the difference between the light-treated and control cultures. Table 3 includes phototoxicity (μM) data for several substituted tetracycline compounds.

[6] = Staphylococcus aureus, S. aureus MRSA5, read-out: Median MIC's G+ S. aureus MRSA5
[7] = Staphylococcus aureus, S. aureus RN450, read-out: Median MIC's G+ S. aureus RN450
[8] = Streptococcus pneumoniae, S. pneumoniae 157E-Strep, read-out: Median MIC's G+ S. pneumoniae 157E-Strep
[9] = Escherichia coli, 18 h, E. coli D1 209, read-out: Median MIC's G− E. coli D1 209
[10] = Escherichia coli, 18 h, E. coli MG 1655, read-out: Median MIC's G− E. coli MG 1655
[11] = Escherichia coli, ATCC25922, 18 h, E. coli ATCC 25922, read-out: Median MIC's G− E. coli ATCC 25922
[12] = Pseudomonas aeruginosa, 18 h, P. aeruginosa K201 PAO6609, read-out: Median MIC's G− P. aeruginosa K201 PAO6609

| SMILES | MIC [1, 6] [µg/mL] | MIC [1, 7] [µg/mL] | MIC [1, 8] [µg/mL] | MIC [2, 9] [µg/mL] | IC50 at 24 h [3] [µM] | IC50 at 24 h [4] [µM] | Photo Toxicity UV Tox50 [5] | Photo Toxicity Dark Tox50 [5] | MIC [2, 10] [µg/mL] | MIC [2, 11] [µg/mL] | MIC [2, 12] [µg/mL] |
| --- | --- | --- | --- | --- | --- | --- | --- | --- | --- | --- | --- |
| CN(C)[C@@H]1C(O)=C(C(N)=O)C(=O)[C@@]2(O)C(O)=C3C(=O)c4c(O)ccc(-c5ccc(NC(=O)CNC(C)(C)C)cc5)c4C[C@H]3C[C@@H]12 [AF] | 4 (≈ 6.47 µM) | 0.06 (≈ 0.097 µM) | 0.06 (≈ 0.097 µM) | 2 (≈ 3.23 µM) | > 13.7 | > 13.7 | >137.36 µM | >137.36 µM |  |  |  |
| COCCNCC(=O)c1ccc(O)c2c1C[C@H]1C[C@H]3[C@H](N(C)C)C(O)=C(C(N)=O)C(=O)[C@@]3(O)C(O)=C1C2=O [AG] | 64 (≈ 121 µM) | 4 (≈ 7.55 µM) | 4 (≈ 7.55 µM) | 64 (≈ 121 µM) | > 158 | > 158 | >157.68 µM | >157.68 µM | 32 (≈ 60.4 µM) | 32 (≈ 60.4 µM) | 64 (≈ 121 µM) |
| CN(C)CCNC(=O)c1ccc(O)c2c1C[C@H]1C[C@H]3[C@H](N(C)C)C(O)=C(C(N)=O)C(=O)[C@@]3(O)C(O)=C1C2=O [AH] | 64 (≈ 121 µM) | 16 (≈ 30.3 µM) | 8 (≈ 15.1 µM) | 64 (≈ 121 µM) | > 126 | > 126 | >125.56 µM | >125.56 µM | 64 (≈ 121 µM) | 64 (≈ 121 µM) | 64 (≈ 121 µM) |
| CCN(CC)CCCC(C)NC(=O)c1ccc(O)c2c1C[C@H]1C[C@H]3[C@H](N(C)C)C(O)=C(C(N)=O)C(=O)[C@@]3(O)C(O)=C1C2=O (stereo partly shown) [AI] | 64 (≈ 107 µM) | 64 (≈ 107 µM) | 64 (≈ 107 µM) | 64 (≈ 107 µM) | > 109 | > 109 | >108.86 µM | >108.86 µM | 64 (≈ 107 µM) | 64 (≈ 107 µM) | 64 (≈ 107 µM) |
| CC(C)N(C)CC(=O)c1ccc(O)c2c1C[C@H]1C[C@H]3[C@H](N(C)C)C(O)=C(C(N)=O)C(=O)[C@@]3(O)C(O)=C1C2=O [AJ] | 0.5 (≈ 0.948 µM) | 0.06 (≈ 0.114 µM) | 0.06 (≈ 0.114 µM) | 1 (≈ 1.9 µM) | > 150 | > 150 | >149.87 µM | >149.87 µM | 0.25 (≈ 0.474 µM) | 0.25 (≈ 0.474 µM) | 32 (≈ 60.7 µM) |
| COC(=O)C1CCN(Cc2ccc(O)c3c2C[C@H]2C[C@H]4[C@H](N(C)C)C(O)=C(C(N)=O)C(=O)[C@@]4(O)C(O)=C2C3=O)CC1 [AK] | 2 (≈ 3.51 µM) | 0.06 (≈ 0.105 µM) | 0.06 (≈ 0.105 µM) | 4 (≈ 7.02 µM) | > 140 | > 140 | >140.07 µM | >140.07 µM | 0.5 (≈ 0.878 µM) | 0.25 (≈ 0.439 µM) | 64 (≈ 112 µM) |
| CN(C)CC(=O)N1CC=C(c2ccc(O)c3c2C[C@H]2C[C@H]4[C@H](N(C)C)C(O)=C(C(N)=O)C(=O)[C@@]4(O)C(O)=C2C3=O)CC1 [AL] | 32 (≈ 55.1 µM) | 0.5 (≈ 0.861 µM) | 0.5 (≈ 0.861 µM) | 64 (≈ 110 µM) | > 145 | > 145 | >145.35 µM | >145.35 µM | 16 (≈ 27.6 µM) | 16 (≈ 27.6 µM) | 64 (≈ 110 µM) |
| CC(=O)Nc1cccc(-c2ccc(O)c3c2C[C@H]2C[C@H]4[C@H](N(C)C)C(O)=C(C(N)=O)C(=O)[C@@]4(O)C(O)=C2C3=O)c1 [AO] | 4 (≈ 7.31 µM) | 0.06 (≈ 0.11 µM) | 0.06 (≈ 0.11 µM) | 64 (≈ 117 µM) | > 16.3 | > 16.3 | >162.66 µM | >162.66 µM | 32 (≈ 58.4 µM) | 4 (≈ 7.31 µM) | 64 (≈ 117 µM) |
| COc1ccc(CN(C)C)cc1-c1ccc(O)c2c1C[C@H]1C[C@H]3[C@H](N(C)C)C(O)=C(C(N)=O)C(=O)[C@@]3(O)C(O)=C1C2=O [AT] | 0.5 (≈ 0.866 µM) | 0.06 (≈ 0.104 µM) | 0.06 (≈ 0.104 µM) | 1 (≈ 1.73 µM) | > 146 | > 146 | >146.03 µM | >146.03 µM | 1 (≈ 1.73 µM) | 0.5 (≈ 0.866 µM) | 64 (≈ 111 µM) |
| CN(C)CCC(=O)c1ccc(O)c2c1C[C@H]1C[C@H]3[C@H](N(C)C)C(O)=C(C(N)=O)C(=O)[C@@]3(O)C(O)=C1C2=O [AV] | 0.5 (≈ 0.974 µM) | 0.06 (≈ 0.117 µM) | 0.5 (≈ 0.974 µM) | 64 (≈ 125 µM) | > 153 | > 153 | >153.46 µM | >153.46 µM | 16 (≈ 31.2 µM) | 8 (≈ 15.6 µM) | 64 (≈ 125 µM) |
| CN(C)CCNC(=O)c1cccc(-c2ccc(O)c3c2C[C@H]2C[C@H]4[C@@H](N(C)C)C(O)=C(C(N)=O)C(=O)[C@@]4(O)C(O)=C2C3=O)c1 [A] | 64 (≈ 106 µM) | 8 (≈ 13.2 µM) | 4 (≈ 6.62 µM) | 64 (≈ 106 µM) | > 200 | > 200 | M: >200 uM | M: >200 uM | 64 (≈ 106 µM) | 64 (≈ 106 µM) | 64 (≈ 106 µM) |
